Data reported in publication PMC8944080, “Production of indole by Corynebacterium glutamicum microbial cell factories for flavor and fragrance applications” (Microbial Cell Factories, 2022).

Target: T1, PrTNA (Proteiniclasticum ruminis, UniProt A0A1I5A1Q1)
T1 construct: gene tnaA; full length, untagged, codon-optimised gene in pGold, expressed in C. glutamicum C1*
T1 sequence (A0A1I5A1Q1 1-461): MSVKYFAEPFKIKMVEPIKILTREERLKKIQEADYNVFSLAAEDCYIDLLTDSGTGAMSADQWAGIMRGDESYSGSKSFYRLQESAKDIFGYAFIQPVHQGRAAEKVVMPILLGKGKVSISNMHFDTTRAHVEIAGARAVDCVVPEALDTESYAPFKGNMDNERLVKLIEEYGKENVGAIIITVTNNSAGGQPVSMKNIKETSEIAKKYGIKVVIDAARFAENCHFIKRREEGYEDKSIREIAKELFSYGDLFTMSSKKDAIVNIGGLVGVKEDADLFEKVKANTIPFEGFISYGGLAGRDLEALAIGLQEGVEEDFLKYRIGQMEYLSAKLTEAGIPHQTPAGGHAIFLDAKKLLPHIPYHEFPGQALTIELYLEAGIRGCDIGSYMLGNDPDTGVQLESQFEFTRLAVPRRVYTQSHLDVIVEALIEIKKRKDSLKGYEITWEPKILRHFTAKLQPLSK
Experiment: whole-cell conversion to indole, HPLC
Assay type: cell-based
Conditions: C. glutamicum C1* co-expressing aroP, CGXII medium, 1 g L^−1 Trp; empty vector control without aroP

## N[C@@H](Cc1c[nH]c2ccccc12)C(=O)O [L-tryptophan]
  whole-cell conversion to indole, HPLC: Indole production was observed for all six tested TNAs
